Results as given in patent US20090093499A1, “Pharmaceutical composition” (LEK PHARMACEUTICALS D.D., priority 2005, published 2009).

Test: Stress stability of the bulk agent and its mixtures with excipients (degradation products by HPLC)
Assay type: physicochemical
Description: The bulk agent is subjected to stress conditions, such as elevated temperature (40° C. and above), elevated humidity (75% or higher relative humidity, open dish conditions), oxygen atmosphere or solutions with different pH. An HPLC analysis, capable of resolving the agent and its degradation products is then employed, to quantify the amount (given as a mass percentage relative to the agent) of degradation products in the stressed samples. Good chromatographic resolution can be achieved on a C18 reversed phase column with acidic phosphate buffer and an increasing gradient of acetonitrile and tetrahydrofuran. Degradation products are quantified using UV detection at 242 nm. The reporting limit of the degradation products has been set at 0.05%. The % reported for HPLC analysis are in general area %.

[1] = aqueous solution of the agent, buffered to pH = 5 at room temperature (24 hours)
[2] = under oxygen at 60° C. for 14 days

## (E)-7-[4-(4-fluorophenyl)-6-isopropyl-2-[methyl(methylsulfonyl)amino]pyrimidin-5-yl]-(3R, 5S)-3,5-dihydroxyhept-6-enoic acid hemicalcium salt [the agent]
[1]
  amount of lactone (%): 2.30%
  amount of oxidation product (%): <0.05%
[2]
  amount of lactone (%): 0.17%
  amount of oxidation product (%): 0.71%
